Reference: PubChem BioAssay AID248 (DTP/NCI, 2004)
Several values for one entry are separate records, joined by “and”; a condition that tells them apart may be missing. Equal entries are not always repeated. Inconclusive results and toxic doses are left out. Cut-off read from the data, not from the text of the source: active = T/C of 150% or more; inactive = T/C below 125%.

Tested on: L1210 leukemia ip in BDF1 mice, survival T/C
Experiment: NCI In Vivo Anticancer Drug Screen. Data for tumor model L1210 Leukemia (intraperitoneal) in B6D2F1 (BDF1) mice
Settings: endpoint: mean survival time, higher = longer survival
Outline: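 Value reflects the ratio of survival in compound-treated mice to survival in vehicle-treated controls, with both groups carrying the same transplanted tumor.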

[1] = dose: 100.0 mg/kg/injection, schedule: Q01DX009 (ip), vehicle: saline
[2] = dose: 100.0 mg/kg/injection, schedule: Q04DX003 (ip), vehicle: Klucel (hydroxypropylcellulose) (HPC)
[3] = dose: 100.0 mg/kg/injection, schedule: Q04DX003 (ip), vehicle: saline
[4] = dose: 200.0 mg/kg/injection, schedule: Q01DX009 (ip), vehicle: saline
[5] = dose: 200.0 mg/kg/injection, schedule: Q04DX003 (ip), vehicle: Klucel (hydroxypropylcellulose) (HPC)
[6] = dose: 200.0 mg/kg/injection, schedule: Q04DX003 (ip), vehicle: saline
[7] = dose: 400.0 mg/kg/injection, schedule: Q04DX003 (ip), vehicle: Klucel (hydroxypropylcellulose) (HPC)
[8] = dose: 400.0 mg/kg/injection, schedule: Q04DX003 (ip), vehicle: saline
[9] = dose: 12.5 mg/kg/injection, schedule: Q04DX003 (ip), vehicle: saline
[10] = dose: 50.0 mg/kg/injection, schedule: Q01DX009 (ip), vehicle: saline
[11] = dose: 100.0 mg/kg/injection, schedule: Q01DX009 (ip), vehicle: saline with Tween-80
[12] = dose: 200.0 mg/kg/injection, schedule: Q01DX009 (ip), vehicle: saline with Tween-80
[13] = dose: 400.0 mg/kg/injection, schedule: Q01DX009 (ip), vehicle: saline with Tween-80
[14] = dose: 100.0 mg/kg/injection, schedule: Q01DX001 (ip), vehicle: carboxymethylcellulose (CMC)
[15] = dose: 200.0 mg/kg/injection, schedule: Q01DX001 (ip), vehicle: carboxymethylcellulose (CMC)
[16] = dose: 400.0 mg/kg/injection, schedule: Q01DX001 (ip), vehicle: carboxymethylcellulose (CMC)
[17] = dose: 100.0 mg/kg/injection, schedule: Q04DX003 (ip), vehicle: saline with Tween-80
[18] = dose: 200.0 mg/kg/injection, schedule: Q04DX003 (ip), vehicle: saline with Tween-80
[19] = dose: 400.0 mg/kg/injection, schedule: Q04DX003 (ip), vehicle: saline with Tween-80
[20] = dose: 100.0 mg/kg/injection, schedule: Q01DX001 (ip), vehicle: saline
[21] = dose: 200.0 mg/kg/injection, schedule: Q01DX001 (ip), vehicle: saline
[22] = dose: 400.0 mg/kg/injection, schedule: Q01DX001 (ip), vehicle: saline
[23] = dose: 100.0 mg/kg/injection, schedule: Q01DX009 (ip), vehicle: Klucel (hydroxypropylcellulose) (HPC)
[24] = dose: 200.0 mg/kg/injection, schedule: Q01DX009 (ip), vehicle: Klucel (hydroxypropylcellulose) (HPC)

Measured: T/C

Cc1cccc(NC#N)n1
inactive: dose: 25.0 mg/kg/injection, schedule: Q01DX001 (ip), vehicle: Klucel (hydroxypropylcellulose) (HPC) 100 % of control | dose: 50.0 mg/kg/injection, schedule: Q01DX001 (ip), vehicle: Klucel (hydroxypropylcellulose) (HPC) 98 % of control | dose: 100.0 mg/kg/injection, schedule: Q01DX001 (ip), vehicle: Klucel (hydroxypropylcellulose) (HPC) 98 % of control and 101 % of control

C/C(=N/O)c1c[n+]([O-])ccn1
inactive: [1] 102 % of control | [2] 94 % of control | [3] 101 % of control | [4] 94 % of control | [5] 94 % of control | [6] 98 % of control | dose: 400.0 mg/kg/injection, schedule: Q01DX009 (ip), vehicle: saline 96 % of control | [7] 100 % of control | [8] 102 % of control

CCN(CCO)c1ccc(N)cc1C
inactive: dose: 0.5 mg/kg/injection, schedule: Q04DX003 (ip), vehicle: saline 97 % of control | dose: 1.0 mg/kg/injection, schedule: Q04DX003 (ip), vehicle: saline 95 % of control | dose: 2.0 mg/kg/injection, schedule: Q04DX003 (ip), vehicle: saline 97 % of control | dose: 6.25 mg/kg/injection, schedule: Q04DX003 (ip), vehicle: saline 88 % of control | [9] 102 % of control

O=C1NCCS1
inactive: [10] 107 % of control | [11] 107 % of control | [1] 92 % of control | dose: 100.0 mg/kg/injection, schedule: Q04DX003 (ip), vehicle: saline sonified 102 % of control | [12] 107 % of control | [4] 115 % of control | dose: 200.0 mg/kg/injection, schedule: Q04DX003 (ip), vehicle: saline sonified 100 % of control | [13] 96 % of control | dose: 400.0 mg/kg/injection, schedule: Q04DX003 (ip), vehicle: saline sonified 106 % of control

O=C(Nc1ccc(Oc2ccc(NC(=O)Nc3cccc(F)c3)cc2)cc1)Nc1cccc(F)c1
inactive: dose: 25.0 mg/kg/injection, schedule: Q01DX009 (ip), vehicle: carboxymethylcellulose (CMC) 89 % of control and 90 % of control | dose: 50.0 mg/kg/injection, schedule: Q01DX009 (ip), vehicle: carboxymethylcellulose (CMC) 86 % of control and 87 % of control | [14] 93 % of control and 94 % of control | dose: 100.0 mg/kg/injection, schedule: Q01DX009 (ip), vehicle: carboxymethylcellulose (CMC) 100 % of control and 106 % of control and 86 % of control | dose: 100.0 mg/kg/injection, schedule: Q04DX002 (ip), vehicle: carboxymethylcellulose (CMC) 97 % of control and 99 % of control | dose: 100.0 mg/kg/injection, schedule: Q04DX003 (ip), vehicle: carboxymethylcellulose (CMC) 94 % of control and 105 % of control | [15] 96 % of control and 105 % of control | dose: 200.0 mg/kg/injection, schedule: Q01DX009 (ip), vehicle: carboxymethylcellulose (CMC) 99 % of control | dose: 200.0 mg/kg/injection, schedule: Q04DX002 (ip), vehicle: carboxymethylcellulose (CMC) 95 % of control and 108 % of control | dose: 200.0 mg/kg/injection, schedule: Q04DX003 (ip), vehicle: carboxymethylcellulose (CMC) 94 % of control and 92 % of control | [16] 96 % of control and 91 % of control | dose: 400.0 mg/kg/injection, schedule: Q01DX009 (ip), vehicle: carboxymethylcellulose (CMC) 93 % of control | dose: 400.0 mg/kg/injection, schedule: Q04DX002 (ip), vehicle: carboxymethylcellulose (CMC) 95 % of control and 89 % of control | dose: 400.0 mg/kg/injection, schedule: Q04DX003 (ip), vehicle: carboxymethylcellulose (CMC) 91 % of control and 92 % of control

CCCCOCCC1CCNCC1
inactive: dose: 12.5 mg/kg/injection, schedule: Q01DX009 (ip), vehicle: saline 97 % of control | [9] 96 % of control | dose: 25.0 mg/kg/injection, schedule: Q01DX009 (ip), vehicle: saline 101 % of control | dose: 25.0 mg/kg/injection, schedule: Q04DX003 (ip), vehicle: saline 97 % of control | [10] 101 % of control | dose: 50.0 mg/kg/injection, schedule: Q04DX003 (ip), vehicle: saline 100 % of control

CC1=C2C(=O)c3ccccc3C2=C(C)S(=O)(=O)O1
inactive: [11] 101 % of control | [17] 98 % of control | [12] 88 % of control | [18] 106 % of control | [13] 94 % of control | [19] 98 % of control

CCOC(=O)C[N+]1(C)C2CCC1CC(O)C2 (centres undefined)
inactive: [20] 94 % of control | [21] 90 % of control | [22] 94 % of control

Cc1cc(=O)n(-c2ccccc2)c2ccccc12
inactive: [20] 103 % of control | [21] 97 % of control | [22] 100 % of control

CC1(c2ccco2)NC(=O)NC1=O (centres undefined)
inactive: [23] 94 % of control | [11] 91 % of control | [17] 111 % of control and 101 % of control | [24] 100 % of control | [12] 95 % of control | [18] 104 % of control and 114 % of control | dose: 400.0 mg/kg/injection, schedule: Q01DX009 (ip), vehicle: Klucel (hydroxypropylcellulose) (HPC) 105 % of control | [13] 98 % of control | [19] 111 % of control and 101 % of control

CC(=O)Cc1cc(C)nc(/N=C(\N)Nc2ccccc2)n1
inactive: dose: 100.0 mg/kg/injection, schedule: Q04DX002 (ip), vehicle: Klucel (hydroxypropylcellulose) (HPC) 93 % of control | dose: 200.0 mg/kg/injection, schedule: Q04DX002 (ip), vehicle: Klucel (hydroxypropylcellulose) (HPC) 104 % of control

CN(C)Cc1ccncc1
inactive: dose: 50.0 mg/kg/injection, schedule: Q01DX001 (ip), vehicle: saline 101 % of control | dose: 50.0 mg/kg/injection, schedule: Q01DX009 (ip), vehicle: saline with Tween-80 93 % of control | dose: 50.0 mg/kg/injection, schedule: Q04DX003 (ip), vehicle: saline with Tween-80 92 % of control | [20] 101 % of control | [11] 101 % of control | [17] 92 % of control | [21] 101 % of control | [12] 96 % of control | [18] 95 % of control

N#CCCc1ccnc2ccccc12
inactive: [3] 100 % of control | [6] 102 % of control | [8] 100 % of control

N=c1ccccn1CC(Cl)COc1ccccc1 (centres undefined)
inactive: [20] 104 % of control

CN1CCN(c2c3c(nc4ccccc24)CCCC3)CC1
inactive: [20] 96 % of control

CCOC(=O)C(C)C(=O)Cc1cc(OC)c(C)cc1Br (centres undefined)
inactive: [11] 97 % of control | [17] 97 % of control | [12] 100 % of control | [18] 95 % of control | [13] 105 % of control | [19] 109 % of control

c1ccc(-c2cn[nH]c2-c2ccccc2)cc1
inactive: dose: 100.0 mg/kg/injection, schedule: Q04DX002 (ip), vehicle: saline with Tween-80 103 % of control | dose: 200.0 mg/kg/injection, schedule: Q04DX002 (ip), vehicle: saline with Tween-80 100 % of control | dose: 400.0 mg/kg/injection, schedule: Q04DX002 (ip), vehicle: saline with Tween-80 106 % of control

CCCCCCCCCc1ccc(OC(C)OCCOCCOCC)cc1 (centres undefined)
inactive: dose: 100.0 mg/kg/injection, schedule: Q04DX002 (ip), vehicle: saline 97 % of control | dose: 200.0 mg/kg/injection, schedule: Q04DX002 (ip), vehicle: saline 100 % of control | dose: 400.0 mg/kg/injection, schedule: Q04DX002 (ip), vehicle: saline 105 % of control

Nc1ccc2c(c1)C(=O)c1cc(N)ccc1-2
inactive: [14] 102 % of control | [2] 103 % of control | [15] 102 % of control | [5] 103 % of control | [16] 98 % of control | [7] 108 % of control

O=C(O)c1c(Br)c(Br)c(Br)c(Br)c1C(=O)Nc1ccccc1F
inactive: [23] 93 % of control | [24] 96 % of control

O=C(Nc1ccc(Cl)cc1)c1ccc([N+](=O)[O-])cc1
inactive: dose: 100.0 mg/kg/injection, schedule: Q04DX002 (ip), vehicle: gum acacia 106 % of control | dose: 200.0 mg/kg/injection, schedule: Q04DX002 (ip), vehicle: gum acacia 102 % of control | dose: 400.0 mg/kg/injection, schedule: Q04DX002 (ip), vehicle: gum acacia 98 % of control

O=C(Nc1nccs1)Nc1ccccc1C(F)(F)F
inactive: [11] 100 % of control | [12] 106 % of control | [13] 92 % of control
